Read-outs that look alike come from different tables or passages of the source.
Tests used:
[1] = tested on: chloroquine-resistant strain FcB1 of P. falciparum; experiment: Anti-Plasmodium activity, [3H]hypoxanthine microdilution on asynchronous cultures; format: cell-based, Plasmodium falciparum; details: for IC90 / IC50: Plasmodium falciparum; for IC90: 48 h, 90% growth inhibition, read-out: CI90 (the source's name)
Procedure: P. falciparum strains (FcB1/Colombia, K1/Thailand, F32/Tanzania, W2/Indochina) were maintained in continuous culture on human erythrocytes in RPMI medium containing 7% (v/v) heat-inactivated human serum under an atmosphere of 3% CO2, 6% O2, 91% N2, at 37°C, as described by Trager and Jensen. Parasite synchronization was performed successively by treatment with 5% (w/v) sorbitol and by concentration in gelatin solution as previously described.
Drug susceptibility assays were performed using a modification of the semi automated microdilution technique of Desjardins et al.. Stock solutions of test compounds were prepared in DMSO. Drug solutions were serially diluted twofold with 100 μl culture medium in 96-well plates. Asynchronous parasite cultures (100 μl, 1 % parasitemia and 1 % final hematocrite) were added to each well and incubated for 24 hours at 37°C prior to the addition of 0.5 μCi of [^3H] hypoxanthine (Amersham, France, 1 to 5 Ci.mmol/ml) per well. After a further incubation of 24 hour, plates were frozen and thawed. Cell lysates were then collected onto glass-filter papers and counted in a liquid scintillation spectrometer. The growth inhibition for each drug concentration was determined by comparison of the radioactivity incorporated in the treated culture with that in the control culture (having the same final % of DMSO) maintained on the same plate. The concentration causing 50% growth inhibition (IC50) and 90% growth (IC90) were obtained from the drug concentration-response curve and the results were expressed as the means ± the standard deviations determined from several independent experiments.

[2] = Cytotoxicity test upon human embryonic cells (MTT); format: cell-based; details: human, MRC-5 human diploid embryonic lung cells; MRC-5, five days, MTT; mean of three experiments
Procedure: (§1) A human diploid embryonic lung cell line (MRC-5, Bio-Whittaker 72211D) was used to assess the cytotoxic effects towards eukaryotic host cells. MRC-5 cells were seeded at 5,000 cells per well in 100 μl. After 24 hours, the cells were washed and two-fold dilutions of the drug were added in 200 μl standard culture medium (RPMI medium + 5% fetal calf serum) and maintained for five days under 5% CO2 atmosphere. The final DMSO concentration in the culture remained below 0.1%. Untreated cultures were included as controls. The cytotoxicity was determined using the colorimetric MTT assay according to the manufacturer's recommendations (Cell proliferation kit I, Roche Applied Science, France) and scored as a percentage of reduction in absorption at 540 nm of treated cultures versus untreated control cultures. […] The results were expressed as the mean ± the standard deviations determined from several independent experiments. The index of selectivity was defined as the ratio of the IC50 value on MRC-5 to that of P. falciparum.

human MRC-5 cells = experiment: Cytotoxicity test upon human embryonic cells (MTT); format: cell-based; details: for IC50: Homo sapiens, MRC5, 120 h, MRC-5, five days, MTT, mean of three experiments; for Index of selectivity: ratio of the IC50 value on MRC-5 cells to that on P. falciparum
Procedure: as §1

[3] = tested on: P. falciparum synchronized cultures; experiment: Parasite stage-specific inhibitory effects and reversibility (Giemsa-stained smears); format: cell-based, Plasmodium falciparum; details: trophozoite stage, 250 nM (data not shown)
Procedure: Synchronized cultures (1–2% parasitemia) at the ring stage (0–10 hours old parasites), the trophozoite stage (25–35 hours old parasites) and the schizonte stage (40–48 hours old parasites) were maintained in the presence of drug concentrations in the vicinity of IC50 values. Aliquots were removed at the indicated times, washed three times with culture medium and maintained in culture in the absence or in the presence of a given drug. […] Parasitaemias were determined by counting 3,000 cells for each sample. Controls consisted of parasites incubated with DMSO instead of drugs processed in the same way.
To investigate the cytostatic or cytotoxic effects of AD2646 on the parasite development, cultures at the ring stage (0–10 hours), the trophozoite stage (25–35 hours) and the schizonte stage (40–48 hours) were incubated with 30, 100 or 250 nM of AD2646 for 24.5 hours for the ring stage, for 11 hours for the trophozoite stage, and for 14 hours for the schizonte stage. Aliquots were then taken, washed and incubated in the absence or the presence of drug for a further 13 hours to 24 hours depending upon the parasite stage tested (see Figure 5). Parasitaemia and parasite stages were determined on Giemsa-stained smears at time of aliquot removal and after the subsequent incubation.

[4] = Figure 2, series A (amide linkage), strain FcB1
[5] = Figure 2, series A (amide linkage), strain FcB1, read-out: CI50 (the source's name)
[6] = Figure 3, series B, strain FcB1
[7] = Figure 3, series B (methylene or thiourea linkage), strain FcB1, read-out: CI50 (the source's name)
[8] = FCB1, Figure 4, selected derivatives, read-out: IC50

Compound | IC90 [1, 4] [µM] | IC50 [1, 5] [µM] | IC90 [1, 6] [µM] | IC50 [1, 7] [µM] | other results
CCCCCCCC(=O)N[C@H](CO)[C@H](O)c1ccc([N+](=O)[O-])cc1 [AD2494] | 70 | 13.1 | – | – | –
CCCCCCCCCCCCCCCC(=O)N[C@H](CO)[C@H](O)c1ccc([N+](=O)[O-])cc1 [AD2495] | 20.3 ± 1.4 | 10.8 ± 2.3 | – | – | –
CCCC(=O)N[C@@H](CO)[C@@H](O)c1ccc([N+](=O)[O-])cc1 [AD2549] | – | > 100 | – | – | –
CCCCCCCC(=O)N[C@@H](CO)[C@@H](O)c1ccc([N+](=O)[O-])cc1 [AD2550] | > 100 | 64.1 | – | – | –
CCCCCCCCCCCC(=O)N[C@H](CO)[C@H](O)c1ccc([N+](=O)[O-])cc1 [AD2552] | 36.3 ± 16.1 | 16.5 ± 6.5 | – | – | –
CCCCCCCCCCCCCC(=O)N[C@H](CO)[C@H](O)c1ccc([N+](=O)[O-])cc1 [AD2557] | 37.8 ± 15.3 | 17.2 ± 5.5 | – | – | –
CCCCCCCCCCCCCCCCCC(=O)N[C@H](CO)[C@H](O)c1ccc([N+](=O)[O-])cc1 [AD2558] | > 50 | 34.3 | – | – | –
CCCCCCCCCCCCCC(=O)N[C@@H](CO)[C@@H](O)c1ccc([N+](=O)[O-])cc1 [AD2560] | 36 ± 18.2 | 18.7 ± 6.5 | – | – | –
CCCC(=O)N[C@H](CO)[C@H](O)c1ccc([N+](=O)[O-])cc1 [AD2583] | 67.4 | 26.8 | – | – | –
O=C(CCCO)N[C@H](CO)[C@H](O)c1ccc([N+](=O)[O-])cc1 [AD2589] | – | > 100 | – | – | –
CC(=O)N[C@H](CO)[C@H](O)c1ccc([N+](=O)[O-])cc1 [AD2590] | – | > 100 | – | – | –
CCCCCCCC(=O)Nc1ccc([C@@H](O)[C@@H](CO)NC(=O)CCC)cc1 [AD2603] | > 100 | 70.1 | – | – | –
CCCCCCCCCCCC(=O)Nc1ccc([C@@H](O)[C@@H](CO)NC(=O)CCC)cc1 [AD2604] | > 100 | 70 | – | – | –
CCCCCCCCCCCCCCCC(=O)Nc1ccc([C@@H](O)[C@@H](CO)NC(=O)CCC)cc1 [AD2605] | – | > 100 | – | – | –
CCCC(=O)N[C@H](CO)[C@H](O)c1ccc(NC(=O)CCC(=O)O)cc1 [AD2606] | – | > 100 | – | – | –
CCCC(=O)Nc1ccc([C@@H](O)[C@@H](CO)NC(=O)CCC)cc1 [AD2607] | – | > 100 | – | – | –
CCCCCCCCCCCCCCCCN[C@H](CO)[C@H](O)c1ccc([N+](=O)[O-])cc1 [AD2619] | – | – | 0.073 ± 0.005 | 0.0428 ± 0.0085 | IC90 at 5 days [2]: 42.3 µM; IC50 (human MRC-5 cells): 26.7 µM; Index of selectivity (human MRC-5 cells): 624
CCCCCCCCCCCCCCCC(=O)N[C@H](CO)[C@H](O)c1ccc(N)cc1 [AD2623] | 81.3 | 40.4 | – | – | –
CCCCCCCCCCCCCCN[C@@H](CO)[C@@H](O)c1ccc([N+](=O)[O-])cc1 [AD2645] | – | – | 0.104 ± 0.001 | 0.0379 ± 0.0021 | IC90 at 5 days [2]: 10.3 µM; IC50 (human MRC-5 cells): 6.1 µM; Index of selectivity (human MRC-5 cells): 161
CCCCCCCCCCCC(=O)Nc1ccc([C@@H](O)[C@H](N)CO)cc1 [AD2648] | 9.6 | 4.9 | – | – | –

Compound | IC90 [1, 4] [µM] | IC50 [1, 5] [µM] | IC90 [1, 6] [µM] | IC50 [1, 7] [µM] | other results
CCCCCCNc1ccc([C@@H](O)[C@@H](CO)NCCCCCC)cc1 [AD2651] | – | – | 0.135 ± 0.019 | 0.0857 ± 0.0232 | parasite development, trophozoite stage [3]: complete inhibition of parasite development
CCCCCCCCNc1ccc([C@@H](O)[C@@H](CO)NCCCCCCCC)cc1 [AD2670] | – | – | 0.069 ± 0.003 | 0.0337 ± 0.0037 | parasite development, trophozoite stage [3]: complete inhibition of parasite development
CCCCCCCCCCCCCCN[C@H](CO)[C@H](O)c1ccc(N)cc1 [AD2672] | – | – | 2.6 ± 0.65 | 1.7 ± 0.2 | IC90 at 5 days [2]: 5.9 µM; IC50 (human MRC-5 cells): 3.7 µM; Index of selectivity (human MRC-5 cells): 2
CCCCCCCCCCCCCCNC(CO)Cc1ccccc1 (centres unmarked) [AD2729] | – | – | – | – | IC90 at 5 days [2]: 9.8 µM; IC50 (human MRC-5 cells): 5.8 µM; Index of selectivity (human MRC-5 cells): 22; reduction of anti-Plasmodium activity by removal of the carbon 3 hydroxyl group ([1]; AD2729 compared with AD2730): 13.5 times; IC50 [1, 8]: 0.258 ± 0.0107 µM
CCCCCCCCCCCCCCN[C@H](CO)[C@H](O)c1ccccc1 [AD2730] | – | – | – | – | IC90 at 5 days [2]: 9.9 µM; IC50 (human MRC-5 cells): 6.1 µM; Index of selectivity (human MRC-5 cells): 322; IC50 [1, 8]: 0.0189 ± 0.0017 µM
CCN[C@H](CO)[C@H](O)c1ccc([N+](=O)[O-])cc1 [AD-2212] | – | – | – | > 33 | –
CCNC(=S)N[C@H](CO)[C@H](O)c1ccc([N+](=O)[O-])cc1 [AD-2215] | – | – | – | > 50 | –
CCCCNC(=S)N[C@H](CO)[C@H](O)c1ccc([N+](=O)[O-])cc1 [AD-2216] | – | – | 13.9 ± 7.1 | 1.13 ± 0.24 | –
CC(C)(C)NC(=S)N[C@H](CO)[C@H](O)c1ccc([N+](=O)[O-])cc1 [AD-2217] | – | – | 0.958 ± 0.013 | 0.574 ± 0.05 | –
CCCCN[C@H](CO)[C@H](O)c1ccc([N+](=O)[O-])cc1 [AD-2493] | – | – | 5.1 ± 0.15 | 0.78 ± 0.07 | –
CCCCCCCCCCCCCCCCCCCCN[C@H](CO)[C@H](O)c1ccc([N+](=O)[O-])cc1 [AD-2554] | – | – | – | > 200 | –
CCCCCCCCCCCCN[C@H](CO)[C@H](O)c1ccc([N+](=O)[O-])cc1 [AD-2617] | – | – | 0.304 ± 0.007 | 0.0171 ± 0.0053 | –
CCCCCCCCCCCCNc1ccc([C@@H](O)[C@@H](CO)NCCCCCCCCCCCC)cc1 [AD-2653] | – | – | 5.5 | 3.25 | –
CCCCNc1ccc([C@@H](O)[C@@H](CO)NCCCC)cc1 [AD-2664] | – | – | 2.4 ± 0.7 | 1.3 ± 0.2 | –
CCCCCCCCCCCCCCN[C@H](CO)[C@H](O)c1ccc(NCC)cc1 [AD-2677] | – | – | 2.7 | 1.48 | –
CCCCCCCCCCCCCCN[C@H](CO)[C@H](O)c1ccc(NC(C)=O)cc1 [AD-2678] | – | – | 10.6 | 5.8 | –
CCCCCCCCCCCCCCN[C@H](CO)[C@H](O)c1ccc(NC(=O)CCCCC)cc1 [AD-2680] | – | – | 5.5 | 3.3 | –
CCCCCCCCCCCCCCN[C@H](C)[C@H](O)c1ccccc1 [AD-2724] | – | – | – | – | IC50 [1, 8]: 0.0334 ± 0.0031 µM
CCN(CC)CCCC(C)Nc1ccnc2cc(Cl)ccc12 (centres unmarked) [chloroquine, reference compound] | – | – | – | – | IC50 ([1]; FCB1): 0.115 ± 0.025 µM

From PMC539285, “Anti-Plasmodium activity of ceramide analogs” (Malaria Journal, 2004)
